# Source: patent US6869625B2, “Method of treating diabetes using plant argyrolobium roseum extract, and a process for the isolation of extract from the said plant” (Council of Scientific and Industrial Research, priority 2001, dated 2005)
# System: normal, 18 h fasting, glucose loaded & streptozotocin induced hyperglycaemic rats
# Assay: hypoglycaemic activity (blood sugar) in rats after oral dosing
# Assay type: in vivo
# Method: 1 kg of A. roseum (whole plant) is shade dried and powdered. The powdered plant material was extracted with ethyl alcohol (5 litres) for 20 hours. The alcohol extract was vacuum dried. The yield was 91 gms. The dried alcoholic extract was macerated successively with hexane and chloroform to give 8.2 gms. and 39.3 gms. of the extracts respectively. A flavonoid glycoside (230 mgs) was isolated from the chloroform extract by repeated column chromatography over silica gel of mesh size 60-120 micron. […] The onset of effect within ½ h and the effect lasted for more than five hours. The fall of blood sugar recorded with above dose was 26 mg/dl (n=24) as compared to fall of 17 & 23 mg/dl recorded with tolbutamide, 50 mg/kg p.o. (n=9) and glipizide, 0.5 mg/kg p.o. (n=8) respectively in 18 h fasting rats.
Structure (SMILES),"fall of blood sugar (0.5 mg/kg p.o., 18 h fasting rats (n=8)) [mg/dL]","fall of blood sugar (50 mg/kg p.o., 18 h fasting rats (n=9)) [mg/dL]"
Cc1cnc(C(=O)NCCc2ccc(S(=O)(=O)NC(=O)NC3CCCCC3)cc2)cn1 [glipizide],23,–
CCCCNC(=O)NS(=O)(=O)c1ccc(C)cc1 [tolbutamide],–,17
